Source: PubChem BioAssay (NCI)
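In this assay, cells in 96-well plates receive the compound at five concentrations for 48 hours. Endpoints are linearly interpolated between the surrounding concentrations. TGI is the concentration that stops growth completely.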 Where a SMILES comes first, the peptide text is derived from it. [ ]: non-standard residue; d: D form. The star is where a group is joined. Phe(2-OMe) = COc1ccccc1C[CH](N)C(=O)O; Cbz = O=C(OCc1ccccc1)*; OBn = c1ccc(CO*)cc1

Experiments:
Experiment in all cases: DTP human tumour cell line panel, 48 h
[1] = system: 786-0 renal
[2] = system: A549 NSCLC
[3] = system: ACHN renal
[4] = system: BT-549 breast
[5] = system: CAKI-1 renal
[6] = system: CCRF-CEM leukemia
[7] = system: COLO 205 colon
[8] = system: DU-145 prostate
[9] = system: EKVX NSCLC
[10] = system: HCT-116 colon
[11] = system: HCT-15 colon
[12] = system: HL-60(TB) leukemia
[13] = system: HOP-92 NSCLC
[14] = system: HS 578T breast
[15] = system: HT29 colon
[16] = system: IGROV1 ovarian
[17] = system: LOX IMVI melanoma
[18] = system: M14 melanoma
[19] = system: MALME-3M melanoma
[20] = system: MDA-MB-231 breast
[21] = system: MDA-MB-435
[22] = system: MDA-N
[23] = system: MOLT-4 leukemia
[24] = system: NCI-H226 lung
[25] = system: NCI-H23 lung
[26] = system: NCI-H460 lung
[27] = system: NCI-H522 lung
[28] = system: NCI/ADR-RES ovarian
[29] = system: OVCAR-3 ovarian
[30] = system: OVCAR-5 ovarian
[31] = system: OVCAR-8 ovarian
[32] = system: PC-3 prostate
[33] = system: RPMI-8226 leukemia
[34] = system: RXF 393 renal
[35] = system: SF-268 CNS
[36] = system: SF-295 CNS
[37] = system: SF-539 CNS
[38] = system: SK-MEL-2 melanoma
[39] = system: SK-MEL-5 melanoma
[40] = system: SK-OV-3 ovarian
[41] = system: SN12C renal
[42] = system: SNB-19 CNS
[43] = system: SR leukemia
[44] = system: SW-620 colon
[45] = system: TK-10 renal
[46] = system: U251 CNS
[47] = system: UACC-257 melanoma
[48] = system: UACC-62 melanoma
[49] = system: UO-31 renal
[50] = system: A498 renal
[51] = system: HCC-2998 colon
[52] = system: HOP-62 NSCLC
[53] = system: K-562 leukemia
[54] = system: KM12 colon
[55] = system: MCF7 breast
[56] = system: OVCAR-4 ovarian
[57] = system: SK-MEL-28 melanoma
[58] = system: SNB-75 CNS

O=Cc1cn(CCCCCn2cc(C=O)c3ccccc32)c2ccccc12
TGI [1]: > 100 µM
TGI [2]: > 100 µM
TGI [3]: > 100 µM
TGI [4]: > 100 µM
TGI [5]: > 100 µM
TGI [6]: > 100 µM
TGI [7]: > 100 µM
TGI [8]: > 100 µM
TGI [9]: > 100 µM
TGI [10]: > 100 µM
TGI [11]: > 100 µM
TGI [12]: > 100 µM
TGI [13]: > 100 µM
TGI [14]: 62.2 µM
TGI [15]: > 100 µM
TGI [16]: > 100 µM
TGI [17]: > 100 µM
TGI [18]: > 100 µM
TGI [19]: > 100 µM
TGI [20]: > 100 µM
TGI [21]: > 100 µM
TGI [22]: > 100 µM
TGI [23]: > 100 µM
TGI [24]: > 100 µM
TGI [25]: > 100 µM
TGI [26]: 11.4 µM
TGI [27]: > 100 µM
TGI [28]: > 100 µM
TGI [29]: > 100 µM
TGI [30]: 6.5 µM
TGI [31]: > 100 µM
TGI [32]: > 100 µM
TGI [33]: > 100 µM
TGI [34]: > 100 µM
TGI [35]: 72.6 µM
TGI [36]: > 100 µM
TGI [37]: > 100 µM
TGI [38]: > 100 µM
TGI [39]: > 100 µM
TGI [40]: > 100 µM
TGI [41]: > 100 µM
TGI [42]: > 100 µM
TGI [43]: > 100 µM
TGI [44]: > 100 µM
TGI [45]: > 100 µM
TGI [46]: > 100 µM
TGI [47]: > 100 µM
TGI [48]: > 100 µM
TGI [49]: > 100 µM

CSc1cc(Cl)c(C)cc1S(=O)(=O)NC(=O)Nc1ccc(Cl)cc1
TGI [1]: > 100 µM
TGI [50]: > 100 µM
TGI [2]: > 100 µM
TGI [3]: > 100 µM
TGI [4]: > 100 µM
TGI [5]: > 100 µM
TGI [6]: 39.2 µM
TGI [7]: 29.8 µM
TGI [9]: 87.8 µM
TGI [51]: 38.4 µM
TGI [10]: 35.7 µM
TGI [11]: 84.1 µM
TGI [12]: 28 µM
TGI [52]: 63.2 µM
TGI [13]: 45.5 µM
TGI [14]: > 100 µM
TGI [15]: > 100 µM
TGI [16]: > 100 µM
TGI [53]: > 100 µM
TGI [54]: 80.8 µM
TGI [17]: 52.5 µM
TGI [18]: > 100 µM
TGI [19]: 85.1 µM
TGI [55]: > 100 µM
TGI [20]: > 100 µM
TGI [21]: 88 µM
TGI [22]: > 100 µM
TGI [23]: 40.9 µM
TGI [24]: 45.1 µM
TGI [25]: 40.4 µM
TGI [26]: > 100 µM
TGI [27]: 41.4 µM
TGI [28]: 97.1 µM
TGI [29]: 74 µM
TGI [56]: > 100 µM
TGI [30]: > 100 µM
TGI [31]: > 100 µM
TGI [32]: > 100 µM
TGI [33]: > 100 µM
TGI [34]: 51.7 µM
TGI [35]: > 100 µM
TGI [36]: > 100 µM
TGI [38]: 49 µM
TGI [57]: > 100 µM
TGI [39]: 64.9 µM
TGI [40]: > 100 µM
TGI [41]: > 100 µM
TGI [42]: 92 µM
TGI [58]: 62.1 µM
TGI [43]: > 100 µM
TGI [44]: 92.7 µM
TGI [45]: 81.5 µM
TGI [46]: > 100 µM
TGI [47]: 79.8 µM
TGI [48]: 14.8 µM
TGI [49]: 31.5 µM

COC(=O)C(Cc1ccccc1OC)NC(=O)C(CC(=O)OCc1ccccc1)NC(=O)OCc1ccccc1 (stereo not drawn) (Cbz-Asp(OBn)-[Phe(2-OMe)]-OMe; configuration not given here)
TGI [1]: > 100 µM
TGI [50]: > 100 µM
TGI [2]: > 100 µM
TGI [3]: > 100 µM
TGI [4]: > 100 µM
TGI [6]: > 100 µM
TGI [7]: > 100 µM
TGI [9]: > 100 µM
TGI [51]: > 100 µM
TGI [10]: > 100 µM
TGI [12]: > 100 µM
TGI [52]: > 100 µM
TGI [13]: > 100 µM
TGI [14]: > 100 µM
TGI [15]: > 100 µM
TGI [16]: > 100 µM
TGI [53]: > 100 µM
TGI [54]: > 100 µM
TGI [18]: > 100 µM
TGI [19]: > 100 µM
TGI [55]: > 100 µM
TGI [22]: > 100 µM
TGI [23]: > 100 µM
TGI [24]: > 100 µM
TGI [25]: > 100 µM
TGI [26]: > 100 µM
TGI [30]: > 100 µM
TGI [31]: > 100 µM
TGI [32]: > 100 µM
TGI [33]: > 100 µM
TGI [34]: > 100 µM
TGI [38]: > 100 µM
TGI [57]: > 100 µM
TGI [39]: > 100 µM
TGI [42]: > 100 µM
TGI [58]: > 100 µM
TGI [43]: 84.6 µM
TGI [44]: > 100 µM
TGI [45]: > 100 µM
TGI [46]: > 100 µM
TGI [47]: > 100 µM
TGI [48]: > 100 µM
TGI [49]: > 100 µM
